# From article PMC7645366 (EMBO Molecular Medicine, 2020)
# pIC50: −log10 of the molar value. Where “and” joins values, the source holds several entries; their conditions need not be identical. Equal values may be shown once. Read-outs that look alike come from different tables or passages of the source. No end group written: not given here.
# What was measured:
# BSA = experiment: ELISA, binding of plate-bound MRC-1 peptides to BSA (negative control); conditions: plate-bound peptide
# Protocol: Briefly, 96‐well flat‐bottomed plates (Sigma, UK) were coated overnight with 10 μM of MRC‐1 peptides in coating buffer (15 mM Na2CO3, 35 mM NaHCO3, pH 9.6). Wells were blocked with 200 μl of 10% (v/v) FBS in PBS for 2 h and then washed three times with PBS, 0.05% (v/v) Tween 20 (Sigma). 50 μl of purified PLY, LLO, and SLO (0–1 μM) in PBS was added and incubated at 37°C for 1 h. 1 μM BSA was added to control wells. Wells were washed with PBS and bound proteins were detected by adding 100 μl of mouse α‐PLY (1:1,000), mouse α‐SLO (1:400), and rabbit α‐LLO (1:1,500) (Abcam), respectively, in blocking buffer. Plates were incubated with 100 μl of secondary anti‐rabbit/anti‐mouse IgG HRP (1:2,000) dilution in blocking buffer. Bound antibodies were detected by adding 100 μl of tetramethylbenzidine substrate solution for 30 min. Phosphoric acid (1 M) was used as the stop solution and absorbance was measured at 450 nm.
# PLY [1] = biological target: T1, PLY (Streptococcus pneumoniae serotype 4, UniProt P0C2J9); format: cell-based
# T1 sequence (P0C2J9 whole entry, looked up): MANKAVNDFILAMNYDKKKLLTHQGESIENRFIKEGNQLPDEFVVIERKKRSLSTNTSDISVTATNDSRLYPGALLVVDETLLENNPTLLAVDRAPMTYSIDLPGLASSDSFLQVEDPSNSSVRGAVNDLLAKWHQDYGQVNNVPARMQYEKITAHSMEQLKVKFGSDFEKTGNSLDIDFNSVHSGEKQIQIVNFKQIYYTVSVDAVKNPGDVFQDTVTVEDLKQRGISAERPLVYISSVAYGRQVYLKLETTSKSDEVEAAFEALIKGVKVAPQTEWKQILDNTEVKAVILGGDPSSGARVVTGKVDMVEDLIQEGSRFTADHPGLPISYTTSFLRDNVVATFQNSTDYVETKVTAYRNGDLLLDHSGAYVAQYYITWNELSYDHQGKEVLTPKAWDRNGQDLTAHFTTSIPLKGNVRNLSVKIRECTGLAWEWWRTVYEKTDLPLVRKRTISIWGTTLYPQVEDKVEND
# S.pneumoniae T4R = experiment: Co-localization of intracellular T4R with MRC-1 and LC3B in DCs; format: cell-based, Streptococcus pneumoniae; conditions: for % bacteria colocalized with MRC-1 / % bacteria colocalized with LC3B / number of bacteria (of n=50) colocalized with LC3B / number of bacteria (of n=50) colocalized with MRC-1: T4R in DCs
# [2] = system: PLY‐producing pneumococcal strain T4; experiment: Binding of FITC-labeled peptides to pneumococci, fluorescence microscopy; parameters: species or system Streptococcus pneumoniae
# SLO [3] = biological target: T2, SLO (Streptococcus pyogenes serotype M1, UniProt P0C0I3); format: cell-based
# T2 sequence (P0C0I3 34-571 limits assumed): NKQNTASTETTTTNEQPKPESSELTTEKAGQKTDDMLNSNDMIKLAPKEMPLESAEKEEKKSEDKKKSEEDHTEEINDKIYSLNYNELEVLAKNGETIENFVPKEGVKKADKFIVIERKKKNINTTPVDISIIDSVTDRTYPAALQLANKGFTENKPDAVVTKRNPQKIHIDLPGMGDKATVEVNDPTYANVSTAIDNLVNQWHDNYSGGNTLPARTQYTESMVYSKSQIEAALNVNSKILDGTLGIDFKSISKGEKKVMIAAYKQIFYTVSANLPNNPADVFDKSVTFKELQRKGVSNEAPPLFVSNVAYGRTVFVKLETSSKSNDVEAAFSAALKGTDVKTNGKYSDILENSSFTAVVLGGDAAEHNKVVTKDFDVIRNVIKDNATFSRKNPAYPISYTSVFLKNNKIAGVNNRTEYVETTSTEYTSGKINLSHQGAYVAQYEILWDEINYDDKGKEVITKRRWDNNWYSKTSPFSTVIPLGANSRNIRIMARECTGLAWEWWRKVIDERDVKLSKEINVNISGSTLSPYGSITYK
# SLO [4] = biological target: T2, SLO; format: cell-based; remark: listed apart in the source
# PLY [5] = biological target: T1, PLY; format: cell-based; remark: listed apart in the source
# LLO [6] = biological target: T3, LLO (Listeria monocytogenes serovar 1/2a, UniProt P13128); experiment: Live imaging of cytolysis of THP-1 macrophages by LLO; format: cell-based; conditions: 0.5 μg/ml LLO, 100 μM, 20 min
# T3 sequence (P13128 25-529): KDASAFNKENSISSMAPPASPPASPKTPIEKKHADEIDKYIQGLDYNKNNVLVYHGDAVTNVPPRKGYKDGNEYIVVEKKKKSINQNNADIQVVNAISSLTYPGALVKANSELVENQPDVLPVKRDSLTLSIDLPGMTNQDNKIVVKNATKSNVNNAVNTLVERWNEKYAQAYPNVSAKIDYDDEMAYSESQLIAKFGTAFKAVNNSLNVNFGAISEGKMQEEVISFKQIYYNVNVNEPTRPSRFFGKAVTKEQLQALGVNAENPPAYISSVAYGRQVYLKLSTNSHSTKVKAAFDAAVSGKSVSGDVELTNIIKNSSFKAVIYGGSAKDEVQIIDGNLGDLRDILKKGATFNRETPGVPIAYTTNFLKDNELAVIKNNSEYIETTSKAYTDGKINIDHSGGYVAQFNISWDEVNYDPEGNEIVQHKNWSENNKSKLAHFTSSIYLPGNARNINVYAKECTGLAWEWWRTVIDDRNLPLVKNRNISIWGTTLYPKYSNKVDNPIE
# S. pyogenes type M1T1 [7] = experiment: Co-localization of intracellular S. pyogenes with MRC-1 and LC3B in DCs; format: cell-based, Streptococcus pyogenes; conditions: 100 μM peptide
# S. pneumoniae T4 = experiment: Mouse intranasal infection (pneumonia) model: survival, lung bacterial load, lung cytokines
# Protocol: Six‐week‐old male C57BL/6 wild‐type mice were used (Charles River, Germany). The study included 10 mice/individual group which were randomly assigned to the different treatment groups. Sample size calculations were determined according to previous experience (Subramanian et al, 2019b). […] The mice were checked at least twice every day; morning at 9 am (referred as “early check”) and evening at 7 pm (referred as “late check”). Post‐mortem, lungs were collected and washed in PBS and homogenized by passing through the 100‐μm cell strainer. Bacterial counts were determined from lung homogenates by viable count on blood agar plates. Aliquots of lung homogenates were frozen at −80°C for cytokine quantification by ELISA.
# The levels of TNF‐α, IL‐8, and IL‐12 (p70) in the culture supernatants and mouse lung tissue were analyzed using the OptEIA ELISA kit (BD Biosciences) following the manufacturer's instructions.
# SLO [8] = biological target: T2, SLO
# PLY [9] = biological target: T1, PLY; conditions: for % cytotoxicity relative to positive control (lysis buffer), LDH: 18 h
# S. pyogenes type M1T1 [10] = experiment: Hemolytic activity of whole bacteria, S. pyogenes; format: cell-based, Streptococcus pyogenes; conditions: 100 μM peptide
# Protocol: All samples were assayed in triplicates.
# PLY [11] = biological target: T1, PLY; format: cell-based; remark: listed apart in the source
# S.pneumoniae T4RΔply = experiment: Co-localization of intracellular T4RΔply with MRC-1 and LC3B in DCs; format: cell-based, Streptococcus pneumoniae; conditions: for % bacteria colocalized with MRC-1 / % bacteria colocalized with LC3B / number of bacteria (of n=50) colocalized with LC3B / number of bacteria (of n=50) colocalized with MRC-1: T4RΔply in DCs
# LLO [12] = biological target: T3, LLO; experiment: Cytokine ELISA, THP-1 macrophages stimulated with LLO; format: cell-based; conditions: 18 h; for IL-8 levels in THP-1 macrophages: LLO 0.5 μg/ml, 100uM
# Protocol: Human monocytic leukemia THP‐1 cells (ATCC TIB‐202) were cultivated in R10 medium and maintained at density of 10^6 cells/ml. For differentiation into macrophages, THP‐1 cells were treated for 48 h with 20 ng/ml of phorbol myristate acetate (Sigma).
sequence,measurement,setting,value
FTWSDGSPVSYEN [P2],binding to BSA in ELISA,BSA,not to BSA
same,release of IL‐8 and TNF‐α in lung tissue model,PLY [1],significantly reduced release
same,co-localization of intracellular T4R with MRC‐1 and LC3B,"S.pneumoniae T4R; DCs, 100 μM peptide","did not co‐localize with MRC‐1, but co‐stained with LC3B"
same,% bacteria colocalized with MRC-1,"S.pneumoniae T4R; MOI 10, 100 μM peptide, n=50 bacteria, experiment 1 of 2",30%
same,% bacteria colocalized with LC3B,S.pneumoniae T4R; experiment 1 of 2,70%
same,number of bacteria (of n=50) colocalized with LC3B,S.pneumoniae T4R; experiment 1 of 2,35
same,number of bacteria (of n=50) colocalized with MRC-1,S.pneumoniae T4R; experiment 1 of 2,15
same,% bacteria colocalized with LC3B,S.pneumoniae T4R; experiment 2 of 2,76%
same,% bacteria colocalized with MRC-1,S.pneumoniae T4R; experiment 2 of 2,24%
same,number of bacteria (of n=50) colocalized with LC3B,S.pneumoniae T4R; experiment 2 of 2,38
same,number of bacteria (of n=50) colocalized with MRC-1,S.pneumoniae T4R; experiment 2 of 2,12
same,binding of FITC-labeled peptide to PLY mutant T4Δply,[2]; fluorescence microscopy,not to the PLY‐deficient strain
same,binding of FITC-labeled peptide to pneumococcal strain T4,[2]; fluorescence microscopy,bound to T4
same,binding of FITC-labelled peptide to capsular mutant strain T4R,"[2]; response to reviewers, Figure 4",binds to T4R
same,cytolysis by SLO in live imaging,SLO [3],protected the cells from cytolysis
same,inhibition of hemolysis induced by purified SLO,SLO [4],up to 50%
same,pIC50,"SLO [4]; read-out: ED50 (median effective dose) vs purified SLO, human, blood, 60 min",5.01
same,cytolysis by PLY in live imaging,PLY [5],protection from cytolysis
same,cytolysis by LLO in live imaging,LLO [6],protected the cells from cytolysis
same,co-staining of intracellular S. pyogenes M1T1 with LC3B,S. pyogenes type M1T1 [7],co‐stained with LC3B
same,"Mouse survival, death recorded",S. pneumoniae T4; Mouse 1 of its group,1
same,"Mouse survival, Time (coded)","S. pneumoniae T4; Mouse 1 of its group, intranasal 2 × 10^6 CFU T4 with 5 μg peptide/mouse (25 μg CaP NPs)",4
same,CFU/ml in mouse lung homogenates,S. pneumoniae T4; Mouse 2 of its group,160000000 CFU/ml
same,"Mouse survival, Time (coded)",S. pneumoniae T4; Mouse 2 of its group,4
same,"Mouse survival, death recorded",S. pneumoniae T4; Mouse 2 of its group,1
same,CFU/ml in mouse lung homogenates,S. pneumoniae T4; Mouse 3 of its group,160000000 CFU/ml
same,"Mouse survival, Time (coded)",S. pneumoniae T4; Mouse 3 of its group,5
same,"Mouse survival, death recorded",S. pneumoniae T4; Mouse 3 of its group,1
same,CFU/ml in mouse lung homogenates,S. pneumoniae T4; Mouse 4 of its group,180000000 CFU/ml
same,"Mouse survival, Time (coded)",S. pneumoniae T4; Mouse 4 of its group,6
same,"Mouse survival, death recorded",S. pneumoniae T4; Mouse 4 of its group,0
same,CFU/ml in mouse lung homogenates,S. pneumoniae T4; Mouse 5 of its group,100000000 CFU/ml
same,"Mouse survival, Time (coded)",S. pneumoniae T4; Mouse 5 of its group,4
same,"Mouse survival, death recorded",S. pneumoniae T4; Mouse 5 of its group,1
same,CFU/ml in mouse lung homogenates,S. pneumoniae T4; Mouse 6 of its group,2.6E+07 CFU/ml
same,"Mouse survival, Time (coded)",S. pneumoniae T4; Mouse 6 of its group,4
same,"Mouse survival, death recorded",S. pneumoniae T4; Mouse 6 of its group,1
same,CFU/ml in mouse lung homogenates,S. pneumoniae T4; Mouse 7 of its group,2.5E+07 CFU/ml
same,"Mouse survival, Time (coded)",S. pneumoniae T4; Mouse 7 of its group,4
same,"Mouse survival, death recorded",S. pneumoniae T4; Mouse 7 of its group,1
same,CFU/ml in mouse lung homogenates,S. pneumoniae T4; Mouse 8 of its group,1.7E+07 CFU/ml
same,"Mouse survival, Time (coded)",S. pneumoniae T4; Mouse 8 of its group,4
same,"Mouse survival, death recorded",S. pneumoniae T4; Mouse 8 of its group,1
same,CFU/ml in mouse lung homogenates,S. pneumoniae T4; Mouse 9 of its group,1.7E+07 CFU/ml
same,"Mouse survival, Time (coded)",S. pneumoniae T4; Mouse 9 of its group,4
same,"Mouse survival, death recorded",S. pneumoniae T4; Mouse 9 of its group,1
same,CFU/ml in mouse lung homogenates,S. pneumoniae T4; Mouse 10 of its group,1.0E+07 CFU/ml
same,"Mouse survival, Time (coded)",S. pneumoniae T4; Mouse 10 of its group,5
same,"Mouse survival, death recorded",S. pneumoniae T4; Mouse 10 of its group,1
same,IL-12 levels in mouse lung homogenates,S. pneumoniae T4; animal in data line 1,4502.5 pg/mL
same,IL-12 levels in mouse lung homogenates,S. pneumoniae T4; animal in data line 2,3606.25 pg/mL
same,TNF-a levels in lung,S. pneumoniae T4; animal in data line 2,645.91 pg/mL
same,IL-12 levels in mouse lung homogenates,S. pneumoniae T4; animal in data line 3,5321.25 pg/mL
same,TNF-a levels in lung,S. pneumoniae T4; animal in data line 3,377.50 pg/mL
same,IL-12 levels in mouse lung homogenates,S. pneumoniae T4; animal in data line 4,8600 pg/mL
same,TNF-a levels in lung,S. pneumoniae T4; animal in data line 4,853.64 pg/mL
same,IL-12 levels in mouse lung homogenates,S. pneumoniae T4; animal in data line 5,7346.25 pg/mL
same,TNF-a levels in lung,S. pneumoniae T4; animal in data line 5,703.86 pg/mL
same,IL-12 levels in mouse lung homogenates,S. pneumoniae T4; animal in data line 6,6002.5 pg/mL
same,TNF-a levels in lung,S. pneumoniae T4; animal in data line 6,679.08 pg/mL
same,IL-12 levels in mouse lung homogenates,S. pneumoniae T4; animal in data line 7,5505 pg/mL
same,TNF-a levels in lung,S. pneumoniae T4; animal in data line 7,828.95 pg/mL
same,IL-12 levels in mouse lung homogenates,S. pneumoniae T4; animal in data line 8,3275 pg/mL
same,TNF-a levels in lung,S. pneumoniae T4; animal in data line 8,612.89 pg/mL
same,IL-12 levels in mouse lung homogenates,S. pneumoniae T4; animal in data line 9,4967.5 pg/mL
same,TNF-a levels in lung,S. pneumoniae T4; animal in data line 9,782.63 pg/mL
same,IL-12 levels in mouse lung homogenates,S. pneumoniae T4; animal in data line 10,8335 pg/mL
same,TNF-a levels in lung,S. pneumoniae T4; animal in data line 10,757.37 pg/mL
same,levels of TNF‐α and IL‐12 in the lung tissue,S. pneumoniae T4; infected mice,significantly reduced
same,TNF-a levels in lung,"S. pneumoniae T4; infected mice, post‐sacrifice, animal in data line 1",263.18 pg/mL
same,mouse survival,"S. pneumoniae T4; intranasal T4 2 × 10^6 CFUs, 5 μg peptide/mouse",prolonged survival
same,CFU/ml in mouse lung homogenates,"S. pneumoniae T4; post‐mortem, Mouse 1 of its group",160000000 CFU/ml
same,"cell death of macrophages induced by SLO, LDH release",SLO [8],significantly reduced cell death
same,"cell death of macrophages induced by PLY, LDH release",PLY [9],significantly reduced cell death
same,"% cytotoxicity relative to positive control (lysis buffer), LDH",PLY [9]; 100 μM,50.12% and 52.81% and 49.35%
same,"% cytotoxicity relative to positive control (lysis buffer), LDH",PLY [9],52.47%
same,hemolytic activity of S. pyogenes type M1T1,S. pyogenes type M1T1 [10],significantly reduced
same,LDH release of 3D lung tissue model,PLY [11],significantly reduced
same,co-localization of T4RΔply in DCs,"S.pneumoniae T4RΔply; DCs, 100 μM peptide, MOI 10, 2 h",had no effect
same,% bacteria colocalized with MRC-1,"S.pneumoniae T4RΔply; 100 μM peptide, n=50 bacteria, experiment 1 of 2",6%
same,% bacteria colocalized with LC3B,S.pneumoniae T4RΔply; experiment 1 of 2,94%
same,number of bacteria (of n=50) colocalized with LC3B,S.pneumoniae T4RΔply; experiment 1 of 2,47
same,number of bacteria (of n=50) colocalized with MRC-1,S.pneumoniae T4RΔply; experiment 1 of 2,3
same,% bacteria colocalized with LC3B,S.pneumoniae T4RΔply; experiment 2 of 2,92%
same,% bacteria colocalized with MRC-1,S.pneumoniae T4RΔply; experiment 2 of 2,8%
same,number of bacteria (of n=50) colocalized with LC3B,S.pneumoniae T4RΔply; experiment 2 of 2,46
same,number of bacteria (of n=50) colocalized with MRC-1,S.pneumoniae T4RΔply; experiment 2 of 2,4
same,"release of IL‐8, TNF‐α and IL‐12 by THP-1 macrophages, LLO","LLO [12]; 0.5 μg/ml toxin, 100 μM peptide",significantly reduced
same,IL-8 levels in THP-1 macrophages,LLO [12]; experiment 1 of 3,437.8 pg/mL
same,IL-8 levels in THP-1 macrophages,LLO [12]; experiment 2 of 3,441.8 pg/mL
same,IL-8 levels in THP-1 macrophages,LLO [12]; experiment 3 of 3,448.5 pg/mL
